Like-named read-outs stand apart in the source and are kept apart here.
Tests used:
MCF-7/Adr = test: Growth inhibition of multidrug resistant MCF-7/Adr breast cancer cells (crystal violet); type: cell-based; conditions: for IC50: Homo sapiens, NCI/ADR-RES
Method: In vitro Activity. […] This cell suspension was dispensed in 200 μL aliquots (1000 cells/well) into the inside wells of 96-well tissue culture plates. Outside wells contained 200 μL of media. […] The medium was replaced with 90 μL of growth medium prior to addition of the drug. Doxaz was dissolved in DMSO at concentrations ranging from 50 μM to 1 mM. […] Serial dilutions (1:3 and 1:10) were made in sterile DMSO to yield seven solutions of decreasing drug concentration at 100× the respective working concentrations. […] Additionally, two lanes were treated with 10 μL of growth medium containing 10% sterile DMSO and one lane was treated with 90 μL of 1.5 M Tris HCl. […]
(§1) Cell growth inhibition experiments initially focused on MCF-7, MCF-7/Adr, SK-HEP-1, and Hep G2 cancer cells as well as rat cardiomyocytes as a measure of cardiotoxicity and Vero cells (green monkey kidney cells) as an additional measure of normal cell toxicity.
(§2) Activity of plasmin-activated prodrugs.
A more thorough characterization of the growth inhibition of a variety of cancer cells as well as rat cardiomyocytes by Formula IV (aFK-PABC-Doxaz) was evaluated in comparison with inhibition of growth by Doxaz, Dox and aFK-PABC-Dox. Cells were treated with drug for 3 h and colony growth was measured at 3 to 5 days when cells reached about 80% confluence. […] The breast cancer cell lines represent the multi-drug resistant (MDR) phenotype with MCF-7/Adr cells and a cell line that is transfected with the gene for urokinase plasminogen activator (uPA), the primary enzyme responsible for cleavage of plasminogen to plasmin. Rat cardiomyocytes served as a model for comparison of drug cardiotoxicity.

Hep G2 = test: Growth inhibition of Hep G2 liver cancer cells; type: cell-based, human; conditions: for IC50: Homo sapiens, HepG2
Source text: Cell growth inhibition experiments initially focused on MCF-7, MCF-7/Adr, SK-HEP-1, and Hep G2 cancer cells as well as rat cardiomyocytes as a measure of cardiotoxicity and Vero cells (green monkey kidney cells) as an additional measure of normal cell toxicity. […]

[1] = test system: H9c2(2-1) rat cardiomyocytes; test: Growth inhibition of rat cardiomyocytes as a measure of cardiotoxicity; type: cell-based; conditions: for Toxicity to cardiomyocytes compared with Doxorubicin: rat cardiomyocytes; for IC50: Rattus norvegicus
Method: Biological activity of simple Doxazolidine carbamates. Since the prodrug carbamates were designed to be activated by carboxylesterases CES1 (hCE1) and/or CES2 (hiCE), cell lines of interest were measured for expression of the respective mRNAs using reverse transcription (RT) followed by PCR (polymerase chain reaction). Cancer cell lines investigated included SHP-77 resistant small cell lung, DU-145 prostate, MCF-7 sensitive breast, MCF-7/Adr resistant breast, SK-HEP-1 liver, and Hep G2 liver cells. As a measure of possible cardiotoxicity, H9c2(2-1) rat cardiomyocytes were also investigated. Cardiotoxicity is relevant because the ultimate product of metabolism and subsequent hydrolysis of these carbamates is doxorubicin, which is cardiotoxic. […] Additionally, the rat cardiomyocytes, H9c2(2-1), also express more CES2 than CES1.
Cell growth inhibition experiments initially focused on MCF-7, MCF-7/Adr, SK-HEP-1, and Hep G2 cancer cells as well as rat cardiomyocytes as a measure of cardiotoxicity and Vero cells (green monkey kidney cells) as an additional measure of normal cell toxicity. The butyl and pentyl carbamates inhibited the growth of MCF-7, MCF-7/Adr, and SK-HEP-1 cell lines with a 24 h drug treatment period with some selectivity for cancer cells over cardiomyocytes relative to growth inhibition by Dox as shown in Table 2. […] The relative inactivity of the ethyl carbamate may indicate that a substantial lipophilic interaction is required at the active site of the carboxylesterases to hold the Doxaz substrate.
Biological activity of Doxazolidine carbamates with self-eliminating spacer. […] SHP-77 small cell lung cancer cells were also of interest because they express modest amounts of both enzymes. Inhibition of the growth of cardiomyocytes was used as a measure of cardiotoxicity, and inhibition of the growth of Vero cells, green monkey kidney cells, was again used as another measure of toxicity to normal cells. They also show more activity against the cancer cells that express higher levels of CES1. Of particular note is the higher activity against Hep G2 cells than against SK-HEP-1 cells. […] The low toxicity of pentyl PABC-Doxaz to cardiomyocytes relative to the toxicity of Dox is encouraging and consistent with the low level of expression of CES1 in cardiomyocytes.
A more thorough characterization of the growth inhibition of a variety of cancer cells as well as rat cardiomyocytes by Formula IV (aFK-PABC-Doxaz) was evaluated in comparison with inhibition of growth by Doxaz, Dox and aFK-PABC-Dox. Cells were treated with drug for 3 h and colony growth was measured at 3 to 5 days when cells reached about 80% confluence. The cancer cells included one prostate cancer cell line (DU-145), three related breast cancer cell lines (MCF-7, MCF-7/Adr, and MCF-7 uPA), and one pancreatic cancer cell line (Mia PaCa-2). The breast cancer cell lines represent the multi-drug resistant (MDR) phenotype with MCF-7/Adr cells and a cell line that is transfected with the gene for urokinase plasminogen activator (uPA), the primary enzyme responsible for cleavage of plasminogen to plasmin. Rat cardiomyocytes served as a model for comparison of drug cardiotoxicity. Growth inhibition was also measured with added plasmin. aFK-PABC-Doxaz inhibited the growth of most of the cancer cells 0.5 log or more better than did aFK-PABA-Dox. Although not as dramatic, this differential response paralleled the differential response between Doxaz and Dox which is approximately two logs except for the MDR expressing, MCF-7/Adr cells which show more than three logs differential response. […] Addition of 0.01 unit/mL of plasmin has no effect on the activity of Dox but increases the activity of both aFK-PABC-Doxaz and aFK-PABC-Dox, in some cases by more than a log. Addition of 0.01 unit/mL plasminogen increases the activity of aFK-PABC-Doxaz on average by 0.3 log. […]

MDA-MB-435 = test: Growth inhibition of MDA-MB-435 breast cancer cells; type: cell-based; conditions: Homo sapiens
Method: In vitro Activity. […] This cell suspension was dispensed in 200 μL aliquots (1000 cells/well) into the inside wells of 96-well tissue culture plates. Outside wells contained 200 μL of media. […] The medium was replaced with 90 μL of growth medium prior to addition of the drug. Doxaz was dissolved in DMSO at concentrations ranging from 50 μM to 1 mM. […] Serial dilutions (1:3 and 1:10) were made in sterile DMSO to yield seven solutions of decreasing drug concentration at 100× the respective working concentrations. […] Additionally, two lanes were treated with 10 μL of growth medium containing 10% sterile DMSO and one lane was treated with 90 μL of 1.5 M Tris HCl. The cells were incubated at 37° C. for 3 h, at which time the drug solutions were replaced with 200 μL of fresh growth medium.
as §2

Vero cells = test: Growth inhibition of Vero cells as a measure of normal cell toxicity (MTT); type: cell-based, green monkey; conditions: for IC50: Chlorocebus sabaeus, Vero
Source text: as §1
SHP-77 small cell lung cancer cells were also of interest because they express modest amounts of both enzymes. Inhibition of the growth of cardiomyocytes was used as a measure of cardiotoxicity, and inhibition of the growth of Vero cells, green monkey kidney cells, was again used as another measure of toxicity to normal cells.

[2] = read-out: IC50 value for cell growth inhibition, MCF-7/Adr
[3] = 3 h, read-out: Growth inhibition IC50, MCF-7/Adr, 3 h
[4] = 3 h drug treatment, crystal violet, read-out: Growth inhibition IC50, Hep G2, 3 h (converted)
[5] = H9c2, 3 h, read-out: Growth inhibition IC50, H9c2(2-1), 3 h
[6] = 3 h drug treatment, read-out: Growth inhibition IC50, Vero, 3 h (converted)
[7] = 24 h drug treatment, read-out: Growth inhibition IC50, Vero, 24 h (converted)
[8] = 3 h, read-out: IC50 MCF-7/Adr + plasmin
[9] = MDA-MB-435, read-out: IC50 MDA-MB-435, top line of the cell
[10] = 24 h drug treatment, crystal violet

COc1cccc2c1C(=O)c1c(O)c3c(c(O)c1C2=O)C[C@@](O)(C(=O)CO)C[C@@H]3OC1CC2C(OCN2CN2COC3C(C)OC(O[C@H]4C[C@](O)(C(=O)CO)Cc5c(O)c6c(c(O)c54)C(=O)c4c(OC)cccc4C6=O)CC32)C(C)O1 (some centres unmarked) [DoxF, Doxoform, reference compound]
IC50 (MCF-7/Adr; 3 h, read-out: IC50 MCF-7/Adr): 1 nM
IC50 (MCF-7/Adr; [2]): ~2 nM
IC50 lower than doxorubicin, Hep-G2 (Hep G2): more than 25 fold
Toxicity to cardiomyocytes compared with Doxorubicin [1]: no more toxic to cardiomyocytes than Doxorubicin

COc1cccc2c1C(=O)c1c(O)c3c(c(O)c1C2=O)C[C@@](O)(C(=O)CO)C[C@@H]3O[C@H]1C[C@@H]2NCO[C@@H]2[C@H](C)O1 [Doxaz, Doxazolidine]
IC50 (MCF-7/Adr; [3]): 3.16 nM
IC50 (MCF-7/Adr; read-out: IC50 MCF-7/Adr): 3 ± 0.2 nM
IC50 (MCF-7/Adr; [2]): ~2 nM
IC50 (MDA-MB-435; MDA-MB-435, 3 h drug treatment, growth at 5 days, read-out: IC50 MDA-MB-435): 7 ± 0.3 nM
IC50 (Hep G2; [4]): 10 nM
IC50 [1, 5]: 31.6 nM
Toxicity to cardiomyocytes compared with Doxorubicin [1]: no more cardiotoxic than Doxorubicin
IC50 (Vero cells; [6]): 6.31 nM
IC50 (Vero cells; [7]): 7.94 nM

COc1cccc2c1C(=O)c1c(O)c3c(c(O)c1C2=O)C[C@@](O)(C(=O)CO)C[C@@H]3O[C@H]1C[C@H](N)[C@H](O)[C@H](C)O1 [Doxorubicin, reference compound]
IC50 (MCF-7/Adr; [3]): 6310 nM
IC50 (MCF-7/Adr; [8]): 20000 nM
IC50 (MCF-7/Adr; 24 h, read-out: Growth inhibition IC50, MCF-7/Adr, 24 h): 2510 nM
IC50 (MCF-7/Adr; read-out: IC50 MCF-7/Adr): 10000 nM
IC50 (MDA-MB-435; MDA-MB-435, read-out: IC50 MDA-MB-435): 150 ± 14 nM
IC50 (MDA-MB-435; [9]): 150 nM
IC50 (Hep G2; [4]): 200 nM
IC50 (Hep G2; 24 h drug treatment, crystal violet, read-out: Growth inhibition IC50, Hep G2, 24 h (converted)): 31.6 nM
IC50 [1, 5]: 31.6 nM
IC50 ([1]; H9c2, 24 h, read-out: Growth inhibition IC50, H9c2(2-1), 24 h): 20 nM
IC50 ([1]; H9c2, read-out: IC50 Rat Cardio., top line of the cell): 20 nM
IC50 (Vero cells; [6]): 1000 nM
IC50 (Vero cells; [7]): 501 nM

COc1cccc2c1C(=O)c1c(O)c3c(c(O)c1C2=O)C[C@@](O)(C(=O)CO)C[C@@H]3O[C@H]1C[C@H]2[C@H](OCN2C(=O)OCc2ccc(NC(=O)[C@H](CCCCN)NC(=O)[C@H](Cc3ccccc3)NC(=O)[C@@H](C)N)cc2)[C@H](C)O1 [Formula IV, D-Ala-L-Phe-L-Lys-p-aminobenzyloxycarbonyl-Doxaz]
IC50 (MCF-7/Adr; [8]): 10 nM
IC50 (MCF-7/Adr; read-out: IC50 MCF-7/Adr): 100 nM
IC50 (MDA-MB-435; [9]): 240 nM
IC50 (MDA-MB-435; MDA-MB-435, + plasmin, second stacked value, read-out: IC50 MDA-MB-435 + plasmin): 40 nM
IC50 ([1]; H9c2, read-out: IC50 Rat Cardio. + plasmin): 40 nM

CCCCCOC(=O)Nc1ccc(COC(=O)N2COC3C(C)OC(OC4CC(O)(C(=O)CO)Cc5c(O)c6c(c(O)c54)C(=O)c4c(OC)cccc4C6=O)CC32)cc1 (centres unmarked) [Pentyl PABC-Doxaz, Pentyl 4-(N-doxazolidinylcarbonyloxymethyl)phenylcarbamate]
Growth inhibition IC50, MCF-7/Adr, 24 h (MCF-7/Adr; [10]): −6.5 ± 0.06 log of the molar concentration
Growth inhibition IC50, Hep G2, 24 h (Hep G2; [10]): −7.3 ± 0.2 log of the molar concentration
Growth inhibition IC50, H9c2(2-1), 24 h [1, 10]: −6.2 ± 0.2 log of the molar concentration
Growth inhibition IC50, Vero, 24 h (Vero cells; 24 h drug treatment): −6.0 ± 0.04 log of the molar concentration
